Results taken from patent publication US11753407B2, “Compounds for treating spinal muscular atrophy” (PTC Therapeutics, Inc., priority 2012, dated 2023).

What was measured:
[1] = tested on: Smn protein in SMA patient fibroblast cells (GM03813); assay: Smn protein assay in cultured cells (SMN HTRF); format: cell-based, human; settings: SMA patient fibroblast cells, 48 hours; for EC1.5x for Smn protein expression: 7-point concentration curve, SMN HTRF, concentration producing 1.5 times Smn protein vs DMSO vehicle control; for maximum fold (Fold) increase of Smn protein: 7-point concentration data, fold relative to vehicle control
How it was run: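 Fibroblasts, SMA patient; 5,000 cells/well; 7-pt curve, 3.16-fold serial dilution; 48 h, 37 °C, 5% CO2; RIPA lysis 1 h RT; anti-SMN d2 + kryptate overnight RT; HTRF 665/620 nm; fold vs DMSO; EC1.5×, max fold.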

[2] = tested on: SMN2 minigene mRNA (SMN2-A minigene) in HEK293H cells; assay: SMN2 minigene mRNA splicing RT-qPCR assay in cultured cells; format: cell-based, human; settings: Homo sapiens, HEK293-H; concentration increasing full length SMN2 mRNA 1.5-fold relative to vehicle-treated cells; HEK293H cells with SMN2-A minigene, 24 hours, 7-point concentration data; read-out: EC1.5x for production of full length SMN2 mRNA
How it was run: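 Stable SMN2-A minigene HEK293H; cpd 7-pt 3.16-fold series, 200× in DMSO, 24 h, 37 °C, n=2. Lysates → multiplex RT-qPCR (minigene FL + GAPDH), efficiency-corrected ΔΔCt vs vehicle. EC1.5× = 1.5-fold FL mRNA gain.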

Cc1cc(C2CCN(C)CC2)cn2c(=O)cc(-c3ccc4c(cnn4C)c3)nc12 [Compound 784, 9-methyl-2-(1-methyl-1H-indazol-5-yl)-7-(1-methylpiperidin-4-yl)-4H-pyrido[1,2-a]pyrimidin-4-one]
melting point: 255 to 263 °C | EC1.5x for Smn protein expression [1]: *** (an EC1.5× between >0.3 μM and ≤1 μM is indicated by three stars (***)) | maximum fold (Fold) increase of Smn protein [1]: **** (a fold increase between >1.5 and ≤1.65 is indicated by four stars (****)) | EC (1.5-fold increase) [2]: 0.1 to 0.3 µM

CCc1nc(C)cn2nc(-c3cc(=O)n4cc(N5CCN(C)[C@H](C)C5)cc(C)c4n3)cc12 [Compound 785, 7-[(3R)-3,4-dimethylpiperazin-1-yl]-2-(4-ethyl-6-methylpyrazolo[1,5-a]pyrazin-2-yl)-9-methyl-4H-pyrido[1,2-a]pyrimidin-4-one]
melting point: 234 to 240 °C | EC1.5x for Smn protein expression [1]: **** (an EC1.5x≤0.3 μM is indicated by four stars (****)) | maximum fold (Fold) increase of Smn protein [1]: ***** (a fold increase >1.65 is indicated by five stars (*****)) | EC (1.5-fold increase) [2]: < 0.1 µM

CCN1CCC(c2cc(C)c3nc(-c4ccc5c(cnn5C)c4)cc(=O)n3c2)CC1 [Compound 786, 7-(1-ethylpiperidin-4-yl)-9-methyl-2-(1-methyl-1H-indazol-5-yl)-4H-pyrido[1,2-a]pyrimidin-4-one]
melting point: 236 to 240 °C | EC1.5x for Smn protein expression [1]: *** (an EC1.5× between >0.3 μM and ≤1 μM is indicated by three stars (***)) | maximum fold (Fold) increase of Smn protein [1]: **** (a fold increase between >1.5 and ≤1.65 is indicated by four stars (****)) | EC (1.5-fold increase) [2]: 0.1 to 0.3 µM

CCc1nc(C)cn2nc(-c3cc(=O)n4cc(N5CCN[C@@H](C)C5)cc(C)c4n3)cc12 [Compound 787, 2-(4-ethyl-6-methylpyrazolo[1,5-a]pyrazin-2-yl)-9-methyl-7-[(3S)-3-methylpiperazin-1-yl]-4H-pyrido[1,2-a]pyrimidin-4-one]
melting point: 227 to 236 °C | EC1.5x for Smn protein expression [1]: **** (an EC1.5x≤0.3 μM is indicated by four stars (****)) | maximum fold (Fold) increase of Smn protein [1]: ***** (a fold increase >1.65 is indicated by five stars (*****)) | EC (1.5-fold increase) [2]: < 0.1 µM

Cc1cc(C2CCN(CCO)CC2)cn2c(=O)cc(-c3ccc4c(cnn4C)c3)nc12 [Compound 788, 7-[1-(2-hydroxyethyl)piperidin-4-yl]-9-methyl-2-(1-methyl-1H-indazol-5-yl)-4H-pyrido[1,2-a]pyrimidin-4-one]
melting point: 225 to 228 °C | EC1.5x for Smn protein expression [1]: **** (an EC1.5x≤0.3 μM is indicated by four stars (****)) | maximum fold (Fold) increase of Smn protein [1]: ***** (a fold increase >1.65 is indicated by five stars (*****)) | EC (1.5-fold increase) [2]: < 0.1 µM

CCc1nc(C)cn2nc(-c3cc(=O)n4cc(N5CCN(C)[C@@H](C)C5)cc(C)c4n3)cc12 [Compound 789, 7-[(3S)-3,4-dimethylpiperazin-1-yl]-2-(4-ethyl-6-methylpyrazolo[1,5-a]pyrazin-2-yl)-9-methyl-4H-pyrido[1,2-a]pyrimidin-4-one]
melting point: 235 to 241 °C | EC1.5x for Smn protein expression [1]: **** (an EC1.5x≤0.3 μM is indicated by four stars (****)) | maximum fold (Fold) increase of Smn protein [1]: ***** (a fold increase >1.65 is indicated by five stars (*****)) | EC (1.5-fold increase) [2]: < 0.1 µM

Cc1nc(C2=CCNCC2)cn2c(=O)cc(-c3ccc4nn(C)cc4c3)nc12 [Compound 791, 9-methyl-2-(2-methyl-2H-indazol-5-yl)-7-(1,2,3,6-tetrahydropyridin-4-yl)-4H-pyrazino[1,2-a]pyrimidin-4-one]
melting point: > 240 °C (dec.) | EC1.5x for Smn protein expression [1]: **** (an EC1.5x≤0.3 μM is indicated by four stars (****)) | maximum fold (Fold) increase of Smn protein [1]: ***** (a fold increase >1.65 is indicated by five stars (*****)) | EC (1.5-fold increase) [2]: < 0.1 µM

CCc1nc(C)cn2nc(-c3cc(=O)n4cc(C5CCN(C6CCC6)CC5)cc(C)c4n3)cc12 [Compound 792, 7-(1-cyclobutylpiperidin-4-yl)-2-(4-ethyl-6-methylpyrazolo[1,5-a]pyrazin-2-yl)-9-methyl-4H-pyrido[1,2-a]pyrimidin-4-one]
melting point: 231 to 237 °C | EC1.5x for Smn protein expression [1]: *** (an EC1.5× between >0.3 μM and ≤1 μM is indicated by three stars (***)) | maximum fold (Fold) increase of Smn protein [1]: ***** (a fold increase >1.65 is indicated by five stars (*****)) | EC (1.5-fold increase) [2]: < 0.1 µM

CCc1nc(C)cn2nc(-c3cc(=O)n4cc(C5CCN(CCO)CC5)cc(C)c4n3)cc12 [Compound 793, 2-(4-ethyl-6-methylpyrazolo[1,5-a]pyrazin-2-yl)-7-[1-(2-hydroxyethyl)piperidin-4-yl]-9-methyl-4H-pyrido[1,2-a]pyrimidin-4-one]
melting point: 210 to 216 °C | EC1.5x for Smn protein expression [1]: **** (an EC1.5x≤0.3 μM is indicated by four stars (****)) | maximum fold (Fold) increase of Smn protein [1]: ***** (a fold increase >1.65 is indicated by five stars (*****)) | EC (1.5-fold increase) [2]: < 0.1 µM

CCc1cc(-c2cc(=O)n3cc(N4CCN5CCC[C@@H]5C4)ccc3n2)cn2cc(C)nc12 [Compound 794, 2-(8-ethyl-2-methylimidazo[1,2-a]pyridin-6-yl)-7-[(8aR)-hexahydropyrrolo[1,2-a]pyrazin-2(1H)-yl]-4H-pyrido[1,2-a]pyrimidin-4-one]
melting point: 231 to 235 °C | EC1.5x for Smn protein expression [1]: **** (an EC1.5x≤0.3 μM is indicated by four stars (****)) | maximum fold (Fold) increase of Smn protein [1]: ***** (a fold increase >1.65 is indicated by five stars (*****)) | EC (1.5-fold increase) [2]: < 0.1 µM

CCc1cc(-c2cc(=O)n3cc(N4CCN5CCC[C@H]5C4)ccc3n2)cn2cc(C)nc12 [Compound 795, 2-(8-ethyl-2-methylimidazo[1,2-a]pyridin-6-yl)-7-[(8aS)-hexahydropyrrolo[1,2-a]pyrazin-2(1H)-yl]-4H-pyrido[1,2-a]pyrimidin-4-one]
melting point: 229 to 233 °C | EC1.5x for Smn protein expression [1]: **** (an EC1.5x≤0.3 μM is indicated by four stars (****)) | maximum fold (Fold) increase of Smn protein [1]: ***** (a fold increase >1.65 is indicated by five stars (*****)) | EC (1.5-fold increase) [2]: < 0.1 µM

Cc1nc(C2CCNCC2)cn2c(=O)cc(-c3ccc4nn(C)cc4c3)nc12 [Compound 796, 9-methyl-2-(2-methyl-2H-indazol-5-yl)-7-(piperidin-4-yl)-4H-pyrazino[1,2-a]pyrimidin-4-one]
melting point: 229 to 235 °C | EC1.5x for Smn protein expression [1]: **** (an EC1.5x≤0.3 μM is indicated by four stars (****)) | maximum fold (Fold) increase of Smn protein [1]: ***** (a fold increase >1.65 is indicated by five stars (*****)) | EC (1.5-fold increase) [2]: < 0.1 µM

Cc1cn2nc(-c3cc(=O)n4cc(N5CC[C@H](CN)C5)ccc4n3)cc2c(C)n1 [Compound 797, 7-[(3R)-3-(aminomethyl)pyrrolidin-1-yl]-2-(4,6-dimethylpyrazolo[1,5-a]pyrazin-2-yl)-4H-pyrido[1,2-a]pyrimidin-4-one]
melting point: 214 to 217 °C | EC1.5x for Smn protein expression [1]: * (An EC1.5× for Smn protein expression between >3 μM and ≤10 μM is indicated by one star (*)) | maximum fold (Fold) increase of Smn protein [1]: *** (a fold increase between >1.35 and ≤1.5 is indicated by three stars (***)) | EC (1.5-fold increase) [2]: 1 to 3 µM

Cc1cn2nc(-c3cc(=O)n4cc(N5CC[C@H](CN(C)C)C5)ccc4n3)cc2c(C)n1 [Compound 799, 7-{(3R)-3-[(dimethylamino)methyl]pyrrolidin-1-yl}-2-(4,6-dimethylpyrazolo[1,5-a]pyrazin-2-yl)-4H-pyrido[1,2-a]pyrimidin-4-one]
melting point: 229 to 231 °C | EC1.5x for Smn protein expression [1]: **** (an EC1.5x≤0.3 μM is indicated by four stars (****)) | maximum fold (Fold) increase of Smn protein [1]: ***** (a fold increase >1.65 is indicated by five stars (*****)) | EC (1.5-fold increase) [2]: < 0.1 µM

Cc1cn2nc(-c3cc(=O)n4cc(C5C[C@H](C)N[C@@H](C)C5)ccc4n3)cc2c(C)n1 (stereo partly drawn) [Compound 800, 7-[(2S,6S)-2,6-dimethylpiperidin-4-yl]-2-(4,6-dimethylpyrazolo[1,5-a]pyrazin-2-yl)-4H-pyrido[1,2-a]pyrimidin-4-one]
melting point: 248 to 250 °C | EC1.5x for Smn protein expression [1]: **** (an EC1.5x≤0.3 μM is indicated by four stars (****)) | maximum fold (Fold) increase of Smn protein [1]: ***** (a fold increase >1.65 is indicated by five stars (*****)) | EC (1.5-fold increase) [2]: < 0.1 µM

COc1ccc(-c2cc(=O)n3cc(N4CCNCC4)ccc3n2)cc1 [Cpd 1, 2-(4-methoxyphenyl)-7-(piperazin-1-yl)-4H-pyrido[1,2-a]pyrimidin-4-one]
melting point: 182 to 184 °C | maximum fold (Fold) increase of Smn protein [1]: ** (a fold increase between >1.2 and ≤1.35 is indicated by two stars (**)) | EC (1.5-fold increase) [2]: 0.3 to 1 µM

Cc1ccc2nc(-c3cc(=O)n4cc(N5CCNCC5)ccc4n3)cn2c1 [Cpd 29, 2-(6-methylimidazo[1,2-a]pyridin-2-yl)-7-(piperazin-1-yl)-4H-pyrido[1,2-a]pyrimidin-4-one]
melting point: 193 to 198 °C | maximum fold (Fold) increase of Smn protein [1]: *** (a fold increase between >1.35 and ≤1.5 is indicated by three stars (***)) | EC (1.5-fold increase) [2]: 3 to 30 µM

COc1ccc(-c2cnc3cc(N4CCNCC4)ccn3c2=O)cc1OC [Cpd 52, 3-(3,4-dimethoxyphenyl)-8-(piperazin-1-yl)-4H-pyrido[1,2-a]pyrimidin-4-one]
melting point: 175 to 179 °C | maximum fold (Fold) increase of Smn protein [1]: * (A maximum fold increase of ≤1.2 is indicated by one star (*)) | EC (1.5-fold increase) [2]: 3 to 30 µM
